Results reported in patent US8629240B2, “Peptide ligands for clusterin and uses thereof” (National Research Council of Canada, priority 2009, dated 2014).
Ends that are not written are not given here. Peptide text beside a SMILES is read from it. Alexa Fluor 680 C2‑maleimide = near-infrared dye maleimide, coupled by thioether to the C-terminal Cys; DyLight 680 = DyLight 680 fluorophore

Key:
4T1 tumor [1] = assay: In vivo blocking experiment with excess unlabeled peptide; set-up: species or system mouse
Method: To further validate the specificity of the in vivo targeting ability of the P3378-DL680 probe, a blocking experiment using an excess of unlabeled P3378 peptide was carried out. Mice received 25 nmoles of P3378-DL680 alone (n=1) or in combination with 5 μmoles unlabeled P3378 or P3378R peptide (both n=2) in 100 μL sterile saline. Animals in the control groups received 25 nmoles of P3378-DL680 with or without 5 μmoles of the unlabeled scrambled P3378R peptide, whereas the experimental animals were injected with 25 nmoles of P3378-DL680 in combination with 5 μmoles of unlabeled P3378 peptide. […] Furthermore, using the gated NIRF lifetime and the OptiView 3D reconstruction module we selected in each mouse the slice along the Z-axis that contained the highest concentration of P3378-DL680 and determined its relative concentration.

[2] = tested on: 4T1 tumor and organs (liver, spleen, pancreas, kidney, heart, lungs); assay: Confocal microscopy of probe distribution in 4T1 tumor and organs; format: in vivo, mouse
Method: Confocal microscopy was used to evaluate the distribution of the P3378-DL680 probe in the 4T1 tumor and various organs (liver, spleen, pancreas, kidney, heart, lungs), harvested 15 min post-injection. […] DAPI staining of the nuclei was used to visualize tissue morphology.

rh-clusterin = biological target: T1, rh-clusterin (Homo sapiens, UniProt P10909); assay: STD-NMR binding of synthetic peptides to rh-clusterin; conditions: ~1:30 protein:peptide, 298K
T1 construct: made in house; host or cells: HEK-293 cells
Method: To confirm direct binding of the peptides of Example 1 to clusterin, the interaction of the synthetic peptides of Example 2 with clusterin was tested using Nuclear Magnetic Resonance Saturation Transfer Difference (STD-NMR; Mayer & Meyer, 2001)
NMR samples were prepared by dissolving 0.15 mM of peptides in 50 mM sodium phosphate buffer, 0.2 mM EDTA, pH 6.5. rh-clusterin (˜1 mg/ml) in 5 mM sodium phosphate buffer, 0.02 mM EDTA, pH 7.4, was added to ˜1:30 protein:peptide ratio.
All NMR experiments were performed at 298K on a Bruker Avance800™ NMR spectrometer equipped with a 5 mm triple-resonance probe with three-axis gradients. Saturation transfer difference (STD) spectra was recorded using WATERGATE version of STD pulse sequence (35) with a 3 s selective saturation pulse applied in the relaxation delay and a 20 ms spinlock pulse with a field strength of 12.25 kHz. The saturation pulse was implemented using a pulse train of 49 ms Gaussian-shaped selective pulse and 1 ms interpulse delay. Each Gaussian-shaped pulse had 1000 points with a 1% truncation and was applied with a field strength of 75.9 Hz. STD spectra were recorded with a spectral width of 16025.64 Hz and 32 K data points. Time domain signals were accumulated with 1024 and 4096 scans for the free and complexed sample, respectively. NMR data were processed using Bruker Xwinnmr 2.6. An exponential weighting function of 7 Hz was applied prior to Fourier transformation and polynomial baseline correction.
NMR signals of peptide P3378 and rh-clusterin were severely overlapped, making it impossible to apply the above saturation pulse exclusively on rh-clusterin resonances without disturbing those of the peptide. In order to identify the binding interactions in the P3378-rh-clusterin complex, a new experimental scheme was implemented by applying the on-resonance saturation pulse at methyl resonances (0.912 ppm) and the off-resonance irradiation at −7.799 ppm (referenced H2O to 4.700 ppm). […]

[3] = biological target: T2, rhCLU (recombinant human clusterin) (Homo sapiens, UniProt P10909); assay: SPR biosensor analysis, rhCLU flowed over immobilized peptide; format: binding; conditions: for sequence dependence of the interaction with clusterin: concluded from scrambled peptides; for koff / kon: 25° C.; for binding of rhCLU to immobilized randomized peptide (Scatchard plot): randomized sequence control peptides
T2 construct: made in house; host or cells: HEK-293 cells
Text: Peptides were immobilized on research-grade CM5 sensor chips by a maleimide coupling method. CM5 sensor chips (research grade) and EDC were purchased from Biosensor AB (Uppsala, Sweden). This thiol coupling generates a stable thioether bond between reactive maleimide groups on the sensor chip surface and the thiol groups of the peptides. A heterobifunctional reagent, SMCC-hydrazide (4-[N-maleimidomethyl]cyclohexane-1 carboxylhydrazide; 99.5% pure; purchased from Molecular Biosciences Inc. (Boulder, Colo.)), was used to introduce reactive maleimido groups to the sensor surface. Immobilization was performed at 25° C. at a flow rate of 5 μL/min. A continuous flow of the HBS-EP buffer (20 mM HEPES, 150 mM NaCl, 3.4 mM EDTA and 0.05% Tween™-20 at pH 7.4) was maintained over the sensor surface. The carboxylated dextran matrix on the sensor surface was activated by an injection of 50 μL of a freshly mixed solution containing 172 μL of 1.2 mM […] (EDC) in 100 mM MES buffer at pH 5.00, and 28 μL of 17.8 mM SMCC-hydrazide in 40% DMF. The ratio of the SMCC:EDC was 2.5:1. Peptide-coupled surfaces were generated by injecting peptides (30-100 μg/ml) in 100 mM MES buffer (at pH 5.0). The amount of peptide immobilized on the activated surface was controlled by altering the contact time with the peptide solution and was between approximately 400 and 500 RU, or 400-500 pg peptide/mm^2. The immobilization procedure was completed by a 50 μL injection of 50 mM cysteine in 1 M sodium chloride and 0.1M sodium acetate (pH 4) to quench excess active maleimide groups.
Protein-peptide interactions were followed using a BIAcore 3000 instrument (Biosensor AB, Uppsala, Sweden). All binding experiments were carried out at 25° C. under a continuous flow of the HBS-EP buffer (20 mM HEPES, 150 mM NaCl, 3.4 mM EDTA and 0.05% Tween-200) at pH 7.4 over the sensor surface at a flow rate of 20 μL/min. Different concentrations of rh-clusterin in the HBS-EP buffer were injected over the peptide-derivatized sensor chips. Dissociation was monitored for up to 300 s post-injection. The surfaces were fully regenerated by 15 s injection of an HBS-EP buffer solution containing 5 mM NaOH. […] Reference responses from control flow cells, containing unmodified dextran surfaces, were subtracted from peptide-containing flow cells, for each analyte injection using the BiaEvaluation software version 3.0 (Biacore AB, Uppsala, Sweden).
The resulting sensorgrams were used for kinetic rate determination through global fitting of the experimental data to a simple 1:1 Langmuir binding model. […] Affinity data (KD) from the binding studies were obtained by plotting the response in RU at the steady state, Req, versus the concentration of clusterin, C, and by fitting these curves to a one-site binding model, Req=C*xRmax/(C+KD) where Rmax is the value in RU at saturation and Req is the observed optical change in RU at each given C.

[4] = biological target: T3, extracellular domain of the Type II TGF-beta receptor (Homo sapiens, UniProt P37173); assay: SPR specificity test with Type II TGF-beta receptor extracellular domain; format: binding; conditions: receptor 38 nM to 4.5 μM over immobilized peptide
T3 construct: the extracellular domain of the Type II TGF-beta receptor
Method: (§1) The specificity of the clusterin-peptide interactions was investigated using SPR biosensor analysis and proteins unrelated to clusterin. Immobilization of the peptides and other proteins on the sensor chips and the SPR experiments were conducted as described in Example 4.
FIG. 8 presents SPR biosensor sensorgrams showing the interaction of the extracellular domain of the Type II TGF-beta receptor (38 nM to 4.5 μM) with immobilized P3378 (500 RUs) (FIG. 8A) or P3375 (1200 RUs) (FIG. 8B).

[5] = biological target: T4, epidermal growth factor ectodomain (EGFR-ED) (Homo sapiens, UniProt P00533); assay: SPR specificity test with EGFR ectodomain; format: binding; conditions: EGFR-ED 70 nM to 5.63 μM over immobilized peptide
T4 construct: the epidermal growth factor ectodomain (EGFR-ED)
Method: as §1

4T1 tumor [6] = tested on: 4T1 tumor
Method: As a model system, 4T1 mouse mammary carcinoma cell line cells were used to generate tumors in syngeneic BALB/c mice. […] Six to eight weeks old female BALB/c mice were obtained from Charles River. […] A 50 μl 1:1 solution of sterile Matrigel and saline, or the same solution containing 4T1 mouse mammary tumor cells (5×10^6 cells), was injected subcutaneously into the right hind thigh of the animal. Clippers and Nair were used to remove hair from the injection site as well as the lower back and the left thigh of the animals prior to the Matrigel and tumor cell injections. When tumors measured ˜0.5 to 0.8 cm in diameter (6-8 days), the tumor-bearing mice were subjected to in vivo imaging.
Animals were imaged using the following procedures. Animals were anesthetized using isoflurane (3% in O2 at 2 L/min). Prior to the injection of the labeled peptides, animals were subjected to a full body scan to obtain a background fluorescence image. P3378-Alexa680 or P3378R-Alexa680 was administered (25 nmol in 100 μL sterile saline) via the tail vein using a 0.5-ml insulin syringe with a 27-gauge fixed needle. Immediately after, the animal was placed on the heated animals plate (39° C.) of the ART eXplore Optix MX2 imaging system (Advanced Research Technologies, Montreal, Canada). Laser power and counting time per pixel were optimized at 9.6 μW and 0.5 s, respectively. These values remained constant during the entire experiment. The raster scan interval was set at 1.5 mm and was held constant during the acquisition of each image. The data were recorded as Temporal Point-Spread Functions (TPSF), and fluorescence intensity and fluorescence lifetime maps were generated. All images were analyzed using the ART Optix OptiView™ software. Volume data and 3D images were reconstructed using the ART OptiView™ 3D Reconstruction Software Module. All animals were euthanized after the imaging experiments.
Animals were imaged in the ART Optix MX2 small animal imager using three approaches: • a. Mice were injected intravenously (i.v.) via the tail vein with either 5 nanomoles of P3378 peptide labeled with Alexa680, or P3378R peptide labeled with Alexa680; • b. Mice were injected intravenously (i.v.) via the tail vein with either 25 nanomoles of P3378 peptide labeled with Alexa680, or P3378R peptide labeled with Alexa680; • c.

[7] = global fit, one-to-one Langmuir binding model

T2 sequence (P10909 23-227 limits assumed): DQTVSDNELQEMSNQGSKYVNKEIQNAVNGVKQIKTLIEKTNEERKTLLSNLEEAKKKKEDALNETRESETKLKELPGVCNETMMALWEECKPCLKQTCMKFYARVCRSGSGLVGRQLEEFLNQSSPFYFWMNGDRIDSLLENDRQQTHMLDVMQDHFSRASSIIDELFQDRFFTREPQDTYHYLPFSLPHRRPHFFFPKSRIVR
T2 sequence (P10909 228-449 limits assumed): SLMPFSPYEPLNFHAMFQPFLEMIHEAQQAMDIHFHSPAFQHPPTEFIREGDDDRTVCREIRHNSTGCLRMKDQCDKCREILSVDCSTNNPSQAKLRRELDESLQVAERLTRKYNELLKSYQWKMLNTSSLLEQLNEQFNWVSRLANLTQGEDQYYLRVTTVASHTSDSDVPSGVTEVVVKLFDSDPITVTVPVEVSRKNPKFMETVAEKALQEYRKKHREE
T1 sequence (P10909 23-227 limits assumed): as the sequence (P10909 23-227 limits assumed) above
T1 sequence (P10909 228-449 limits assumed): as the sequence (P10909 228-449 limits assumed) above
T4 sequence (P00533 25-645 limits assumed): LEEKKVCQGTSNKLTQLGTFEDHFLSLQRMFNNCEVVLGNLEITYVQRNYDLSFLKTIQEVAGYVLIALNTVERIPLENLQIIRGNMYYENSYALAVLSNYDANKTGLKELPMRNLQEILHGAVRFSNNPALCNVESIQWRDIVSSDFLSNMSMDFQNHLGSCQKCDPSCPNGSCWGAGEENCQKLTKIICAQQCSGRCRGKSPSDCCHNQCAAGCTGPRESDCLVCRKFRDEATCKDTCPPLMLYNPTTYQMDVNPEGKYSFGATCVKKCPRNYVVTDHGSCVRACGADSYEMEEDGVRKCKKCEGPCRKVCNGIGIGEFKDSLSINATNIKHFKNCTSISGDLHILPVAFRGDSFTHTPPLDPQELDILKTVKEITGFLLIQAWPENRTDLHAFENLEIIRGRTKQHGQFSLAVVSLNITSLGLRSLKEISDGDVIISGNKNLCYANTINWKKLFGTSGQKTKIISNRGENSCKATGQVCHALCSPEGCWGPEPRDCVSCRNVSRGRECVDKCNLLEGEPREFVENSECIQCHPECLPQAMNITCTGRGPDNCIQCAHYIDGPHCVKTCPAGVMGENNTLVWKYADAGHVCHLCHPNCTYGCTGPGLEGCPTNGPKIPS
T3 sequence (P37173 23-166 limits assumed): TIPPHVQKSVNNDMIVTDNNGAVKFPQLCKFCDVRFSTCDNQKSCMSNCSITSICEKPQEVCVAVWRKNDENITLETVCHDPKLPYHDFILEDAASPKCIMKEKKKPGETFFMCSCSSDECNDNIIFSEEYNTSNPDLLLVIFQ

## P3378-DL680: P3378 peptide labeled with Dylight680 fluorophor (HPLSKHPYWSQPSGSGC(DyLight 680))
4T1 tumor [1]; in the presence of excess scrambled P3378R peptide vs probe alone
  relative concentration of the probe at the tumor site: only slightly affected
4T1 tumor [1]; in the presence of excess unlabeled P3378 peptide vs probe alone
  relative concentration of the probe at the tumor site, times lower: 3-4 times
[2]; 25 nmoles, 15 min post-injection, frozen sections
  uptake of the fluorescent probe in the 4T1 tumor: specific uptake and accumulation

## CC(C)C[C@H](NC(=O)[C@H](CCC(N)=O)NC(=O)[C@H](CO)NC(=O)[C@H](Cc1c[nH]c2ccccc12)NC(=O)[C@H](Cc1ccc(O)cc1)NC(=O)[C@@H](NC(=O)[C@@H](N)CC(N)=O)[C@@H](C)O)C(=O)N[C@@H](CC(C)C)C(=O)N[C@@H](Cc1c[nH]cn1)C(=O)N[C@@H](Cc1ccccc1)C(=O)N[C@@H](CCC(N)=O)C(=O)N[C@H](C(=O)N[C@@H](CO)C(=O)NCC(=O)N[C@@H](CO)C(=O)NCC(=O)N[C@@H](CS)C(=O)O)[C@@H](C)O [P3375]
rh-clusterin
  binding to clusterin by STD-NMR: confirmed
[3]
  sequence dependence of the interaction with clusterin: not peptide sequence specific
[3]; [7]
  koff: 0.006 ± 0.0002 s⁻¹
  kon: 11200 M⁻¹ s⁻¹
[4]
  interaction with Type II TGF-beta receptor: no significant signal was observed
[5]
  binding to EGFR-ED: do not bind specifically

## CC(C)C[C@H](NC(=O)[C@H](Cc1ccc(O)cc1)NC(=O)[C@@H]1CCCN1)C(=O)N[C@@H](Cc1c[nH]cn1)C(=O)N[C@@H](CCC(N)=O)C(=O)N[C@@H](CO)C(=O)N1CCC[C@H]1C(=O)N[C@@H](Cc1c[nH]cn1)C(=O)N[C@@H](Cc1c[nH]c2ccccc12)C(=O)N[C@@H](CCCCN)C(=O)N1CCC[C@H]1C(=O)N[C@@H](CO)C(=O)N[C@@H](CO)C(=O)NCC(=O)N[C@@H](CO)C(=O)NCC(=O)N[C@@H](CS)C(=O)O [P3378R, PYLHQSPHWKPSSGSGC, reference compound] (H-PYLHQSPHWKPSSGSGC-OH)
4T1 tumor [6]; mouse, in vivo
  accumulation in the kidneys: faster accumulation

## AWHTLASTSLAPSGSGC (Randomized control for P3376) [P3376R, randomized version of P3376, reference compound]
[3]
  binding of rhCLU to immobilized randomized peptide (Scatchard plot): bound

## P3378-Alexa680: P3378 peptide labeled with Alexa Fluor 680 C2-maleimide (HPLSKHPYWSQPSGSGC(Alexa Fluor 680 C2‑maleimide))
4T1 tumor [6]; 5 or 25 nanomoles i.v., Alexa680 label
  accumulation in the tumor (as well as kidney and bladder): accumulation

## CC(C)C[C@H](NC(=O)[C@@H]1CCCN1C(=O)[C@H](CC(C)C)NC(=O)[C@H](C)NC(=O)[C@H](Cc1c[nH]cn1)NC(=O)[C@@H](N)CO)C(=O)N[C@H](C(=O)N[C@@H](Cc1c[nH]c2ccccc12)C(=O)N[C@@H](CO)C(=O)N[C@H](C(=O)N[C@@H](C)C(=O)N[C@@H](C)C(=O)N[C@@H](CO)C(=O)NCC(=O)N[C@@H](CO)C(=O)NCC(=O)N[C@@H](CS)C(=O)O)[C@@H](C)O)[C@@H](C)O [P3376, SHALPLTWSTAA]
rh-clusterin
  binding to clusterin by STD-NMR: confirmed
[3]
  sequence dependence of the interaction with clusterin: not peptide sequence specific

## LSLYHTNTQFWQSGSGC (Randomized control for P3375) [P3375R, randomized version of P3375, reference compound]
[3]
  binding of rhCLU to immobilized randomized peptide (Scatchard plot): bound

## CC(C)C[C@H](NC(=O)[C@@H]1CCCN1C(=O)[C@@H](N)Cc1c[nH]cn1)C(=O)N[C@@H](CO)C(=O)N[C@@H](CCCCN)C(=O)N[C@@H](Cc1c[nH]cn1)C(=O)N1CCC[C@H]1C(=O)N[C@@H](Cc1ccc(O)cc1)C(=O)N[C@@H](Cc1c[nH]c2ccccc12)C(=O)N[C@@H](CO)C(=O)N[C@@H](CCC(N)=O)C(=O)N1CCC[C@H]1C(=O)N[C@@H](CO)C(=O)NCC(=O)N[C@@H](CO)C(=O)NCC(=O)N[C@@H](CS)C(=O)O [P3378]
rh-clusterin
  binding to clusterin by STD-NMR: direct interaction
[3]
  sequence dependence of the interaction with clusterin: sequence dependent
[3]; [7]
  koff: 0.0052 ± 0.0002 s⁻¹
  kon: 17200 M⁻¹ s⁻¹
[3]; global fit, one-to-one Langmuir binding model, read-out: Kd (global kinetic fit)
  Kd: 300 nM
[4]
  interaction with Type II TGF-beta receptor: no significant signal was observed
[5]
  binding to EGFR-ED: do not bind specifically
4T1 tumor [1]; 5 μmoles unlabeled peptide with 25 nmoles P3378-DL680, 15 min post-injection
  blocking of uptake of P3378-DL680 into the tumor by unlabeled peptide: successfully blocked uptake
[2]; 25 nmoles P3378-DL680, 15 min post-injection, liver, spleen, pancreas, kidney, heart, lungs
  detection in the other organs: could not be detected
4T1 tumor [6]; co-injection of P3378-Dylight680 and P3378R-Dylight800, 25 nanomoles each i.v.
  AUT/AUN ratio as a function of time: behaviour after the initial accumulation: remains at the tumor site
4T1 tumor [6]; co-injection of P3378-Dylight680 and P3378R-Dylight800, 25 nanomoles each i.v., 6 animals
  residence at the tumor site: resided much longer at the tumor site
4T1 tumor [6]; co-injection, AUT/AUN ratio
  time post-injection up to which both peptides accumulate at the tumor site at the same rate: ~60 min
